Laboratory results: patent publication US20260000600A1, “PHARMACEUTICAL COMPOSITION FOR PREVENTING OR TREATING INFLAMMATORY DISEASES COMPRISING PEGYLATED BILIRUBIN” (BILIX CO., LTD., priority 2022, published 2026)

Key:
[1] = tested on: DNFB-induced contact dermatitis mouse model; assay: DNFB-induced contact dermatitis mouse model; format: in vivo, C57BL/6 NC/Nga male mice; details: 0.1% Dexamethasone, 62.5 mg/animal, topical daily; Vehicle 0.94±0.01
Source text: A DNFB-induced contact dermatitis mouse model was created using 6 to 10-week-old C57BL/6 NC/Nga male mice and Mouse 2, 4 Dinitrofluorobenzene (DNFB). On Days 0 and 1, 0.5% DNFB solution (acetone:olive oil=4:1) was applied to the back skin to sensitize them, and then on Day 7, 0.3% DNFB solution was applied to the ear skin to induce contact dermatitis. With respect to a normal group in which the DNFB solution was not applied (Normal group), as negative control groups, a group in which no additional substances were applied in the process of inducing contact dermatitis (No Treatment group) and a group in which excipients were applied to the skin (Vehicle group), and as a positive control group, a group in which the previously-approved drug Maxidex was applied (Dexamethasone group, 0.1% Dexamethasone, 62.5 mg/animal), the test substance Brixelle (30 mg/kg) was applied to the skin every day from Day 0, thus to evaluate its effectiveness. Clinical symptoms were evaluated during the process of inducing contact dermatitis, and skin tissues were secured after the survival test was completed for further analysis.
Ear thickness was measured to evaluate edema, a clinical symptom of contact dermatitis. […] The results of the graph were expressed as mean±SEM. […]

[2] = tested on: HDM-induced atopic dermatitis mouse model; assay: HDM-induced atopic dermatitis mouse model (2), comparison with approved drugs; format: in vivo, NC/Nga female mice; details: 0.1% Dexamethasone, 62.5 mg/animal
Description: (§1) An HDM-induced atopic dermatitis mouse model was created by applying HDM antigen ointment to the back and ear skin of 6 to 10-week-old NC/Nga female mice a total of 7 times on Days 0, 7, 10, 14, 17, 21 and 24. […] Clinical symptoms were evaluated during the process of inducing atopic dermatitis, and skin tissues were secured after the survival test was completed for further analysis.
(§2) To quantify the clinical symptoms of atopic dermatitis, for four (4) clinical index items including 1) erythema/hemorrhage, 2) scarring/dryness, 3) edema and 4) excoriation/maceration (erosion), a clinical score was measured on a Likert scale out of 3. H&E staining was performed to observe histological changes in the skin for atopic dermatitis, while dihydroethidium (DHE) staining was performed to measure ROS in skin tissues. Further, in order to identify the mast cells and eosinophils infiltrated in the skin tissues, Toluidine blue staining and Congo red staining were performed, respectively. To measure IL-4 and IL-13, which are inflammatory mediators known to be highly related to atopic dermatitis, ELISA was performed on the skin tissues. The results of the graph were expressed as mean±SEM. The statistical analysis was performed using the GraphPad program to confirm statistical significance with the Vehicle group through one-way ANOVA, followed by Dunnett's multiple comparison method (*p<0.05, **p<0.01, ***p<0.001, ****p<0.0001).

[3] = tested on: HDM-induced atopic dermatitis mouse model; assay: HDM-induced atopic dermatitis mouse model (1), dose dependence; format: in vivo, NC/Nga female mice; details: 0.1% Dexamethasone, 62.5 mg/animal
Description: as §1
as §2, with “respectively.” for “respectively. To measure IL-4 and IL-13, which are inflammatory mediators known to be highly related to atopic dermatitis, ELISA was performed on the skin tissues.”

[4] = tested on: IMQ-induced psoriasis mouse model; assay: IMQ-induced psoriasis mouse model; format: in vivo, C57BL/6 male mouse; details: 0.05% Clobetasol propionate, 62.5 mg/animal, topical daily; Vehicle 10.50±0.47
Source text: An IMQ-induced psoriasis mouse model was created by applying Aldara™ (imiquimod, IMQ) cream to the back skin of an 8-week-old C57BL/6 male mouse a total of 7 times from Day 0 to Day 6. With respect to a normal group in which IMQ cream was not applied (Normal group), as negative control groups, a group in which no additional substances were applied in the process of inducing psoriasis (No Treatment group) and a group in which excipients were applied to the skin (Vehicle group), and as a positive control group, a group in which the previously-approved drug Betabate was applied (Clobetasol propionate group, 0.05% Clobetasol propionate, 62.5 mg/animal), the test substance Brixelle (30 mg/kg) was applied to the skin every day from Day 0, thus to evaluate its effectiveness. Clinical symptoms were evaluated during the process of inducing psoriasis, and skin tissues were secured after the survival test was completed for further analysis.
To quantify the clinical symptoms of psoriasis, for three (3) clinical index items including 1) erythema (redness), 2) scaling and 3) skin thickness, a clinical score was measured on a scale out of 4 (modified psoriasis area and severity index, PASI). […] The results of the graph were expressed as mean±SEM. […]

SMILES | thickness of the ear skin [1] | clinical score (atopic dermatitis) ([2]; topical daily from Day 7, Vehicle 9.58±0.64) | eosinophil infiltration (Congo red staining) ([2]; Vehicle 40.06±5.95) | mast cell infiltration (Toluidine blue staining) ([2]; Vehicle 56.81±1.99) | clinical score (atopic dermatitis) ([3]; topical daily from Day 7, Vehicle 9.44±0.77, mean±SEM) | eosinophil infiltration (Congo red staining) ([3]; Vehicle 35.50±1.37) | mast cell infiltration (Toluidine blue staining) ([3]; Vehicle 52.69±2.19) | clinical score (modified PASI) [4]
C[C@@H]1C[C@H]2[C@@H]3CCC4=CC(=O)C=C[C@]4(C)[C@@]3(F)[C@@H](O)C[C@]2(C)[C@@]1(O)C(=O)CO [Dexamethasone] | 0.67±0.02 | 3.75±0.99 | 10.25±2.56 | 20.69±5.25 | 4.90±0.76 | 18.88±1.64 | 27.38±3.19 | –
CCC(=O)O[C@]1(C(=O)CCl)[C@@H](C)C[C@H]2[C@@H]3CCC4=CC(=O)C=C[C@]4(C)[C@@]3(F)[C@@H](O)C[C@@]21C [Clobetasol propionate] | – | – | – | – | – | – | – | 7.25±0.21
